Data: PubChem BioAssay (NCI)
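Grown in 96-well plates, cells were treated for 48 hours with each compound at five concentrations. Insufficient inhibition: endpoint recorded as highest concentration tested. TGI is the concentration that stops growth completely.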

What follows are molecules tested on ACHN renal (assay: growth of human tumour cells (NCI), 48 h).

Row | SMILES | TGI [µM]
1 | COCC(N=CN1CCCc2ccccc2[C@@H]1CCCCl)C(C)(C)C (some centres not stated) | 70
2 | CNc1c2cccc(C)c2nc2c(C(=O)NCCN(C)C)cccc12 | 0.723
3 | O=C1CC(NC(=O)C(F)(F)F)c2c1csc2Br (configuration not stated) | > 100
4 | C[C@]12C[C@H](c3ccccc3)Nc3ccccc3N1C(c1ccccc1)=NO2 | > 100
5 | CC[C@](O)(CC(=O)O[C@H]1C(=O)O[C@@H]2C[C@H]3C(C)=CC(=O)[C@@H](O)[C@]3(C)[C@H]3[C@@]4(O)OC[C@]32[C@@H]1[C@@H](C)[C@H]4O)C(C)C | < 0.01
6 | O=C1CC(=O)NC(=NN2C(=O)/C(=C/C(=O)c3ccco3)N=C2c2ccccc2)N1 | > 100

The molecules below were run on MCF7 breast (assay: growth of human tumour cells (NCI), 48 h).

Row | SMILES | TGI [µM]
7 | COc1ccc2cc(Oc3ccc(Cl)cc3)c(=O)oc2c1 | > 100
8 | CCN(CC)c1cc2c3c(c1)CCCN3CCC2 | > 10
9 | CC(=O)O[C@H]1CC[C@H]2[C@@H]3CCC4C(C)=NNC(=O)C4[C@H]3CC[C@]12C (some centres not stated) | > 100
10 | O=c1[nH]c(C23CC4CC(CC(C4)C2)C3)cc2c1c(=O)oc1ccccc12 | > 41
11 | CC1=NN(C(=O)CC(=O)Nc2ccc(C)cc2)C(=O)C1N=Nc1ccc(C(=O)O)cc1 (configuration not stated) | > 100
12 | O=C1C(=O)c2c(oc(=O)c3ccccc23)-c2ccccc21 | > 25
13 | CCOC(=O)C(C(=O)OCC)=C1NC2(c3ccccc3Nc3ccc(C)cc32)C(C#N)S1 (configuration not stated) | 11.9
14 | CN1CCC2(CC1)SC[C@H]1C(=O)N(c3ccc(Cl)cc3)C(=O)N12 | > 100
15 | CC(C)=CCC[C@@H](C)C1=C(O)C(O)C(C)=C2N=C(c3ccccc3)C(=O)OC21 (some centres not stated) | > 25
16 | CC(C)(C)[Si](C)(C)O[C@@H](C(=O)OC1C=CCCC1)[C@@H](NC(=O)c1ccccc1)c1ccccc1 (some centres not stated) | 59.9
17 | O=C(Nc1cccc2ccccc12)Nn1cnnc1 | > 100
18 | Cc1oc2c(c1C)S(=O)(=O)C(C#N)=C(c1ccccc1)N2 | > 100
19 | CCOC(=O)C1=CN/C(=C(/C)C(=O)OC)SC1C(=O)OCC (configuration not stated) | > 100
20 | Cc1ccc2c(c1)C(=O)/C(=N/Nc1ccc(Cl)cc1)CCO2 | > 100
21 | COc1cc(C2SCC(=O)N2c2ccccc2Cl)cc(OC)c1OC (configuration not stated) | > 100
22 | C=C1C(=O)OC2/C=C(\CO)C3OC3C3OC3(C)CC(OC(=O)/C(=C/C)CO)C12 (configuration not stated) | > 100
23 | COc1ccc2cc(CNCCCCCCCCCCCCNCc3ccc4cc(OC)ccc4c3)ccc2c1 | 31.9
24 | COc1cc(S(=O)(=O)Nc2nc(-c3ccc(N4C(=O)CSC4c4cccs4)cc3)cs2)ccc1Cl (configuration not stated) | > 100
25 | COc1cc(S(=O)(=O)Nc2nc(-c3ccc(N4C(=O)C(CC(=O)O)SC4c4ccccc4O)cc3)cs2)ccc1Cl (configuration not stated) | > 100
26 | N#C/C(=C\c1cn(Cc2ccccc2)c2ccccc12)c1nn(-c2ccccc2)c(N)c1C#N | > 100
27 | COCC(N=CN1CCCc2ccccc2[C@@H]1CCCCl)C(C)(C)C (some centres not stated) | 4.28
28 | CNc1c2cccc(C)c2nc2c(C(=O)NCCN(C)C)cccc12 | 0.96
29 | O=C1CC(NC(=O)C(F)(F)F)c2c1csc2Br (configuration not stated) | 9.85
30 | C[C@]12C[C@H](c3ccccc3)Nc3ccccc3N1C(c1ccccc1)=NO2 | > 100
31 | CC[C@](O)(CC(=O)O[C@H]1C(=O)O[C@@H]2C[C@H]3C(C)=CC(=O)[C@@H](O)[C@]3(C)[C@H]3[C@@]4(O)OC[C@]32[C@@H]1[C@@H](C)[C@H]4O)C(C)C | < 0.0392
32 | O=C1CC(=O)NC(=NN2C(=O)/C(=C/C(=O)c3ccco3)N=C2c2ccccc2)N1 | > 100

What follows are molecules tested on SNB-75 CNS (assay: growth of human tumour cells (NCI), 48 h).

Row | SMILES | TGI [µM]
33 | COc1ccc2cc(Oc3ccc(Cl)cc3)c(=O)oc2c1 | > 100
34 | CCN(CC)c1cc2c3c(c1)CCCN3CCC2 | > 10
35 | CC(=O)O[C@H]1CC[C@H]2[C@@H]3CCC4C(C)=NNC(=O)C4[C@H]3CC[C@]12C (some centres not stated) | 33.7
36 | O=c1[nH]c(C23CC4CC(CC(C4)C2)C3)cc2c1c(=O)oc1ccccc12 | 9.52
37 | CC1=NN(C(=O)CC(=O)Nc2ccc(C)cc2)C(=O)C1N=Nc1ccc(C(=O)O)cc1 (configuration not stated) | > 100
38 | O=C1C(=O)c2c(oc(=O)c3ccccc23)-c2ccccc21 | > 25
39 | CCOC(=O)C(C(=O)OCC)=C1NC2(c3ccccc3Nc3ccc(C)cc32)C(C#N)S1 (configuration not stated) | 64.3
40 | CN1CCC2(CC1)SC[C@H]1C(=O)N(c3ccc(Cl)cc3)C(=O)N12 | > 100
41 | CC(C)=CCC[C@@H](C)C1=C(O)C(O)C(C)=C2N=C(c3ccccc3)C(=O)OC21 (some centres not stated) | > 19.3
42 | CC(C)(C)[Si](C)(C)O[C@@H](C(=O)OC1C=CCCC1)[C@@H](NC(=O)c1ccccc1)c1ccccc1 (some centres not stated) | > 100
43 | O=C(Nc1cccc2ccccc12)Nn1cnnc1 | > 100
44 | Cc1oc2c(c1C)S(=O)(=O)C(C#N)=C(c1ccccc1)N2 | > 100
45 | CCOC(=O)C1=CN/C(=C(/C)C(=O)OC)SC1C(=O)OCC (configuration not stated) | > 100
46 | Cc1ccc2c(c1)C(=O)/C(=N/Nc1ccc(Cl)cc1)CCO2 | > 100
47 | C=C1C(=O)OC2/C=C(\CO)C3OC3C3OC3(C)CC(OC(=O)/C(=C/C)CO)C12 (configuration not stated) | > 100
48 | COc1ccc2cc(CNCCCCCCCCCCCCNCc3ccc4cc(OC)ccc4c3)ccc2c1 | 28.7
49 | COc1cc(S(=O)(=O)Nc2nc(-c3ccc(N4C(=O)CSC4c4cccs4)cc3)cs2)ccc1Cl (configuration not stated) | > 100
50 | COc1cc(S(=O)(=O)Nc2nc(-c3ccc(N4C(=O)C(CC(=O)O)SC4c4ccccc4O)cc3)cs2)ccc1Cl (configuration not stated) | > 100
51 | N#C/C(=C\c1cn(Cc2ccccc2)c2ccccc12)c1nn(-c2ccccc2)c(N)c1C#N | 15.3
52 | COCC(N=CN1CCCc2ccccc2[C@@H]1CCCCl)C(C)(C)C (some centres not stated) | 11.8
53 | CNc1c2cccc(C)c2nc2c(C(=O)NCCN(C)C)cccc12 | 0.592
54 | C[C@]12C[C@H](c3ccccc3)Nc3ccccc3N1C(c1ccccc1)=NO2 | > 100
55 | CC[C@](O)(CC(=O)O[C@H]1C(=O)O[C@@H]2C[C@H]3C(C)=CC(=O)[C@@H](O)[C@]3(C)[C@H]3[C@@]4(O)OC[C@]32[C@@H]1[C@@H](C)[C@H]4O)C(C)C | < 0.01
56 | O=C1CC(=O)NC(=NN2C(=O)/C(=C/C(=O)c3ccco3)N=C2c2ccccc2)N1 | > 100

What follows are molecules tested on HCT-116 colon (assay: growth of human tumour cells (NCI), 48 h).

Row | SMILES | TGI [µM]
57 | COc1ccc2cc(Oc3ccc(Cl)cc3)c(=O)oc2c1 | > 100
